Reference: article PMC6917776, “Discovery of a chemical probe for PRDM9” (Nature Communications, 2019)

Key:
MDA-MB-436 = test: CelltiterGlo viability cell assay; assay type: cell-based; settings: MDA MB436, 6 day
Experimental: (§1) Supplementary Figure 13. […] Viability of
(§2) (a) Multiple Myeloma lines and (b) Breast Cancer cell lines following 3 or 6 days treatment with […]
(§3) manufacturer’s instructions as described in the Supplementary methods. Data are normalized to DMSO control. N=3 biological replicates, +/- SEM. Source data are provided as a Source Data […]
(§4) CelltiterGlo viability cell assay
(§5) Cells were seeded in 96 well plates at per-well densities of 10000 (MDA-MB436, ATCC-HTB130), 15000 (8226, kind gift from Rodger Tiedemann, Princess Margaret Cancer Centre), […]
(§6) kind gift from Rodger Tiedemann, Princess Margaret Cancer Centre) and 50000 (CAL851, kind gift from Mathieu Lupien, Princess Margaret Cancer Centre) and were treated at increasing concentrations of compounds ranging from 0.01 μM to 30 μM and assessed for proliferation using CelltiterGlo (Promega) following manufacturer’s instructions, as readout on days 3 and 6 as indicated. All cell lines were mycoplasma negative, as determined by MycoAlert™ Mycoplasma Detection Kit(Lonza). […]

RPMI-8226 = test: CelltiterGlo viability cell assay; assay type: cell-based
Experimental: as §1, §2, §3, §4, §5, §6

COc1cc(OC)cc(-c2noc(N3CCN(C)C4(CCN(c5ccccc5)CC4)C3)n2)c1 [MRK-740N]
viability Replicate 2 (MDA-MB-436; 0.01 uM): 100.02 | viability Replicate 3 (MDA-MB-436; 0.01 uM): 97.33 | viability Average (MDA-MB-436; 0.03 uM): 104.88 | viability Replicate 1 (MDA-MB-436; 0.03 uM): 112.01 | viability Replicate 2 (MDA-MB-436; 0.03 uM): 99.73 | viability Replicate 3 (MDA-MB-436; 0.03 uM): 102.91 | viability Average (MDA-MB-436; 0.1 uM): 102.74 | viability Replicate 1 (MDA-MB-436; 0.1 uM): 107.88 | viability Replicate 2 (MDA-MB-436; 0.1 uM): 92.08 | viability Replicate 3 (MDA-MB-436; 0.1 uM): 108.25 | viability Average (MDA-MB-436; 0.3 uM): 105.71 | viability Replicate 1 (MDA-MB-436; 0.3 uM): 111.04 | viability Replicate 2 (MDA-MB-436; 0.3 uM): 94.90 | viability Replicate 3 (MDA-MB-436; 0.3 uM): 111.19 | viability Average (MDA-MB-436; 1 uM): 105.76 | viability Replicate 1 (MDA-MB-436; 1 uM): 115.22 | viability Replicate 2 (MDA-MB-436; 1 uM): 95.99 | viability Replicate 3 (MDA-MB-436; 1 uM): 106.08 | viability Average (MDA-MB-436; 3 uM): 103.68 | viability Replicate 1 (MDA-MB-436; 3 uM): 104.50 | viability Replicate 2 (MDA-MB-436; 3 uM): 94.30 | viability Replicate 3 (MDA-MB-436; 3 uM): 112.23 | viability Average (MDA-MB-436; 9.5 uM): 88.40 | viability Replicate 1 (MDA-MB-436; 9.5 uM): 98.62 | viability Replicate 2 (MDA-MB-436; 9.5 uM): 74.13 | viability Replicate 3 (MDA-MB-436; 9.5 uM): 92.44 | viability Average (MDA-MB-436; 30 uM): 37.17 | viability Replicate 1 (MDA-MB-436; 30 uM): 41.30 | viability Replicate 2 (MDA-MB-436; 30 uM): 30.92 | viability Replicate 3 (MDA-MB-436; 30 uM): 39.29 | viability Average (RPMI-8226; 8226, 3 day, 0.01 uM): 101.19 | viability Replicate 1 (RPMI-8226; 8226, 3 day, 0.01 uM): 100.76 | viability Replicate 2 (RPMI-8226; 8226, 3 day, 0.01 uM): 100.18 | viability Replicate 3 (RPMI-8226; 8226, 3 day, 0.01 uM): 102.63 | viability Average (RPMI-8226; 8226, 3 day, 0.03 uM): 99.22 | viability Replicate 1 (RPMI-8226; 8226, 3 day, 0.03 uM): 99.66 | viability Replicate 2 (RPMI-8226; 8226, 3 day, 0.03 uM): 95.69 | viability Replicate 3 (RPMI-8226; 8226, 3 day, 0.03 uM): 102.30 | viability Average (RPMI-8226; 8226, 3 day, 0.1 uM): 101.66 | viability Replicate 1 (RPMI-8226; 8226, 3 day, 0.1 uM): 102.47 | viability Replicate 2 (RPMI-8226; 8226, 3 day, 0.1 uM): 99.05 | viability Replicate 3 (RPMI-8226; 8226, 3 day, 0.1 uM): 103.47 | viability Average (RPMI-8226; 8226, 3 day, 0.3 uM): 100.14 | viability Replicate 1 (RPMI-8226; 8226, 3 day, 0.3 uM): 98.42 | viability Replicate 2 (RPMI-8226; 8226, 3 day, 0.3 uM): 99.23 | viability Replicate 3 (RPMI-8226; 8226, 3 day, 0.3 uM): 102.78 | viability Average (RPMI-8226; 8226, 3 day, 1 uM): 99.15 | viability Replicate 1 (RPMI-8226; 8226, 3 day, 1 uM): 95.47 | viability Replicate 2 (RPMI-8226; 8226, 3 day, 1 uM): 99.58 | viability Replicate 3 (RPMI-8226; 8226, 3 day, 1 uM): 102.40 | viability Average (RPMI-8226; 8226, 3 day, 3 uM): 100.92 | viability Replicate 1 (RPMI-8226; 8226, 3 day, 3 uM): 100.27 | viability Replicate 2 (RPMI-8226; 8226, 3 day, 3 uM): 100.06 | viability Replicate 3 (RPMI-8226; 8226, 3 day, 3 uM): 102.42 | viability Average (RPMI-8226; 8226, 3 day, 9.5 uM): 90.08 | viability Replicate 1 (RPMI-8226; 8226, 3 day, 9.5 uM): 80.69 | viability Replicate 2 (RPMI-8226; 8226, 3 day, 9.5 uM): 88.67 | viability Replicate 3 (RPMI-8226; 8226, 3 day, 9.5 uM): 100.87 | viability Average (RPMI-8226; 8226, 3 day, 30 uM): 40.55 | viability Replicate 1 (RPMI-8226; 8226, 3 day, 30 uM): 58.77 | viability Replicate 2 (RPMI-8226; 8226, 3 day, 30 uM): 22.31 | viability Replicate 3 (RPMI-8226; 8226, 3 day, 30 uM): 40.58 | viability Average (RPMI-8226; 8226, 6 day, 0.01 uM): 98.95 | viability Replicate 1 (RPMI-8226; 8226, 6 day, 0.01 uM): 98.27 | viability Replicate 2 (RPMI-8226; 8226, 6 day, 0.01 uM): 97.90 | viability Replicate 3 (RPMI-8226; 8226, 6 day, 0.01 uM): 100.68 | viability Average (RPMI-8226; 8226, 6 day, 0.03 uM): 98.07 | viability Replicate 1 (RPMI-8226; 8226, 6 day, 0.03 uM): 95.77 | viability Replicate 2 (RPMI-8226; 8226, 6 day, 0.03 uM): 97.65 | viability Replicate 3 (RPMI-8226; 8226, 6 day, 0.03 uM): 100.80 | viability Average (RPMI-8226; 8226, 6 day, 0.1 uM): 98.68 | viability Replicate 1 (RPMI-8226; 8226, 6 day, 0.1 uM): 95.86 | viability Replicate 2 (RPMI-8226; 8226, 6 day, 0.1 uM): 100.16 | viability Replicate 3 (RPMI-8226; 8226, 6 day, 0.1 uM): 100.02 | viability Average (RPMI-8226; 8226, 6 day, 0.3 uM): 96.98 | viability Replicate 1 (RPMI-8226; 8226, 6 day, 0.3 uM): 94.57 | viability Replicate 2 (RPMI-8226; 8226, 6 day, 0.3 uM): 97.72 | viability Replicate 3 (RPMI-8226; 8226, 6 day, 0.3 uM): 98.63 | viability Average (RPMI-8226; 8226, 6 day, 1 uM): 97.56 | viability Replicate 1 (RPMI-8226; 8226, 6 day, 1 uM): 97.46 | viability Replicate 2 (RPMI-8226; 8226, 6 day, 1 uM): 98.37 | viability Replicate 3 (RPMI-8226; 8226, 6 day, 1 uM): 96.84 | viability Average (RPMI-8226; 8226, 6 day, 3 uM): 100.28 | viability Replicate 1 (RPMI-8226; 8226, 6 day, 3 uM): 98.97 | viability Replicate 2 (RPMI-8226; 8226, 6 day, 3 uM): 101.92 | viability Replicate 3 (RPMI-8226; 8226, 6 day, 3 uM): 99.95 | viability Average (RPMI-8226; 8226, 6 day, 9.5 uM): 107.21 | viability Replicate 1 (RPMI-8226; 8226, 6 day, 9.5 uM): 106.83 | viability Replicate 2 (RPMI-8226; 8226, 6 day, 9.5 uM): 105.76 | viability Replicate 3 (RPMI-8226; 8226, 6 day, 9.5 uM): 109.04 | viability Average (RPMI-8226; 8226, 6 day, 30 uM): 80.58 | viability Replicate 1 (RPMI-8226; 8226, 6 day, 30 uM): 102.03 | viability Replicate 2 (RPMI-8226; 8226, 6 day, 30 uM): 55.75 | viability Replicate 3 (RPMI-8226; 8226, 6 day, 30 uM): 83.98
